{"source": "paper PMC5218480", "about": "(PLoS ONE, 2017)", "system": "MV-4-11 cells", "assay": "Gene expression microarray analysis (Affymetrix PrimeView) and GSEA", "assay_type": "cell-based, human", "parameters": "RFU PODN (11730768_x_at) / Fold change /veh PODN (11730768_x_at) / RFU LINC00158 (11744669_a_at) / Fold change /veh LINC00158 (11744669_a_at) / RFU DUSP10 (11751237_a_at) / Fold change /veh DUSP10 (11751237_a_at) / RFU ID3 (11757404_x_at) / Fold change /veh ID3 (11757404_x_at) / RFU PLEKHG5 (11737974_s_at) / Fold change /veh PLEKHG5 (11737974_s_at) / RFU LRRC4B (11730491_at) / Fold change /veh LRRC4B (11730491_at) / RFU GIMAP4 (11747438_a_at) / Fold change /veh GIMAP4 (11747438_a_at) / RFU KRT8 (11758183_x_at) / Fold change /veh KRT8 (11758183_x_at) / RFU CNN1 (11734310_a_at) / Fold change /veh CNN1 (11734310_a_at) / RFU VPS37D (11726825_at) / Fold change /veh VPS37D (11726825_at) / RFU C10orf10 (11716522_x_at) / Fold change /veh C10orf10 (11716522_x_at) / RFU KIR2DL2 /// KIR2DL4 /// KIR2DL5A /// KIR2DL5B /// KIR2DS1 /// KIR2DS2 /// KIR2DS3 /// KIR2DS4 /// KIR3DL3 /// KIR3DL3 /// KIR3DS1 (11738374_at) / Fold change /veh KIR2DL2 /// KIR2DL4 /// KIR2DL5A /// KIR2DL5B /// KIR2DS1 /// KIR2DS2 /// KIR2DS3 /// KIR2DS4 /// KIR3DL3 /// KIR3DL3 /// KIR3DS1 (11738374_at) / RFU C1QL1 (11718748_at) / Fold change /veh C1QL1 (11718748_at) / RFU TMPRSS4 (11747572_a_at) / Fold change /veh TMPRSS4 (11747572_a_at) / RFU HAMP (11756126_x_at) / Fold change /veh HAMP (11756126_x_at) / RFU RNFT2 (11725882_a_at) / Fold change /veh RNFT2 (11725882_a_at) / RFU NR4A2 (11747474_a_at) / Fold change /veh NR4A2 (11747474_a_at) / RFU ABCC12 (11746883_a_at) / Fold change /veh ABCC12 (11746883_a_at) / RFU TMEM136 (11760407_x_at) / Fold change /veh TMEM136 (11760407_x_at) / RFU CLDN22 /// WWC2 (11732394_at) / Fold change /veh CLDN22 /// WWC2 (11732394_at) / RFU HLA-DPB1 (11760878_x_at) / Fold change /veh HLA-DPB1 (11760878_x_at) / RFU SPINT1 (11716480_a_at) / Fold change /veh SPINT1 (11716480_a_at) / RFU GAP43 (11754022_s_at) / Fold change /veh GAP43 (11754022_s_at) / RFU A4GNT (11735810_at) / Fold change /veh A4GNT (11735810_at) / RFU PRB3 (11715151_x_at) / Fold change /veh PRB3 (11715151_x_at) / RFU TUBB4B (11761932_at) / Fold change /veh TUBB4B (11761932_at) / RFU CAPN14 (11732068_a_at) / Fold change /veh CAPN14 (11732068_a_at) / RFU TMCC2 (11721928_a_at) / Fold change /veh TMCC2 (11721928_a_at) / RFU IRGQ (11745062_a_at) / Fold change /veh IRGQ (11745062_a_at) / RFU FAM174B (11720279_a_at) / Fold change /veh FAM174B (11720279_a_at) / RFU TMPRSS4 (11748680_a_at) / Fold change /veh TMPRSS4 (11748680_a_at) / RFU FAM212B (11763350_a_at) / Fold change /veh FAM212B (11763350_a_at) / RFU PLEKHG5 (11743358_a_at) / Fold change /veh PLEKHG5 (11743358_a_at) / RFU ZSCAN30 (11745921_a_at) / Fold change /veh ZSCAN30 (11745921_a_at) / RFU CMKLR1 (11741424_a_at) / Fold change /veh CMKLR1 (11741424_a_at) / RFU LOC101060620 /// MAPK8IP1 (11723275_at) / Fold change /veh LOC101060620 /// MAPK8IP1 (11723275_at) / RFU SPTSSB (11747773_x_at) / Fold change /veh SPTSSB (11747773_x_at) / RFU PRSS12 (11739890_at) / Fold change /veh PRSS12 (11739890_at) / RFU BIN1 (11741810_x_at) / Fold change /veh BIN1 (11741810_x_at) / RFU WNT11 (11732464_a_at) / Fold change /veh WNT11 (11732464_a_at) / RFU C10orf10 (11716521_a_at) / Fold change /veh C10orf10 (11716521_a_at) / RFU C5orf56 (11738089_at) / Fold change /veh C5orf56 (11738089_at) / RFU CYB561 (11721691_x_at) / Fold change /veh CYB561 (11721691_x_at) / RFU ANKRD19P (11752326_a_at) / Fold change /veh ANKRD19P (11752326_a_at) / RFU OR2T12 /// OR2T33 /// OR2T8 (11738714_s_at) / Fold change /veh OR2T12 /// OR2T33 /// OR2T8 (11738714_s_at) / RFU VCAN (11748164_a_at) / Fold change /veh VCAN (11748164_a_at) / RFU JSRP1 (11732532_at) / Fold change /veh JSRP1 (11732532_at) / RFU KRTAP10-11 (11738290_x_at) / Fold change /veh KRTAP10-11 (11738290_x_at) / RFU MYO3A (11730013_a_at) / Fold change /veh MYO3A (11730013_a_at) / RFU EBF3 (11725865_a_at) / Fold change /veh EBF3 (11725865_a_at) / RFU CAMK2N1 (11719241_x_at) / Fold change /veh CAMK2N1 (11719241_x_at) / RFU C5orf56 (11738088_a_at) / Fold change /veh C5orf56 (11738088_a_at) / RFU OLFML3 (11715873_a_at) / Fold change /veh OLFML3 (11715873_a_at) / RFU LOC100653217 /// NTM (11731650_a_at) / Fold change /veh LOC100653217 /// NTM (11731650_a_at) / RFU MAPK11 (11762145_a_at) / Fold change /veh MAPK11 (11762145_a_at) / RFU FIZ1 (11724087_x_at) / Fold change /veh FIZ1 (11724087_x_at) / RFU OASL (11726364_x_at) / Fold change /veh OASL (11726364_x_at) / RFU SOX15 (11748057_x_at) / Fold change /veh SOX15 (11748057_x_at) / RFU CD79A (11719716_a_at) / Fold change /veh CD79A (11719716_a_at) / RFU HIST1H1D (11736915_at) / Fold change /veh HIST1H1D (11736915_at) / RFU CASKIN2 (11723855_a_at) / Fold change /veh CASKIN2 (11723855_a_at) / RFU LOC730098 (11760151_x_at) / Fold change /veh LOC730098 (11760151_x_at) / RFU OR4N2 (11742367_at) / Fold change /veh OR4N2 (11742367_at) / RFU PRRT2 (11749266_a_at) / Fold change /veh PRRT2 (11749266_a_at) / RFU SNX32 (11753110_a_at) / Fold change /veh SNX32 (11753110_a_at) / RFU CDHR5 (11726645_a_at) / Fold change /veh CDHR5 (11726645_a_at) / RFU RCAN1 (11760418_a_at) / Fold change /veh RCAN1 (11760418_a_at) / RFU FAM167A (11723789_a_at) / Fold change /veh FAM167A (11723789_a_at) / RFU FAM26E (11764081_at) / Fold change /veh FAM26E (11764081_at) / RFU ISYNA1 (11749810_s_at) / Fold change /veh ISYNA1 (11749810_s_at) / RFU ACY1 (11761880_at) / Fold change /veh ACY1 (11761880_at) / RFU 11764098_at / Fold change /veh 11764098_at / RFU SAMD14 (11745864_x_at) / Fold change /veh SAMD14 (11745864_x_at) / RFU NPB (11741838_a_at) / Fold change /veh NPB (11741838_a_at) / RFU TMPRSS6 (11731388_a_at) / Fold change /veh TMPRSS6 (11731388_a_at) / RFU KRTAP10-2 (11738614_at) / Fold change /veh KRTAP10-2 (11738614_at) / RFU ARHGAP8 /// PRR5-ARHGAP8 (11727945_x_at) / Fold change /veh ARHGAP8 /// PRR5-ARHGAP8 (11727945_x_at) / RFU KRTAP5-7 /// NADSYN1 (11734609_at) / Fold change /veh KRTAP5-7 /// NADSYN1 (11734609_at) / RFU RASL12 (11751679_a_at) / Fold change /veh RASL12 (11751679_a_at) / RFU CDKN2B (11736163_a_at) / Fold change /veh CDKN2B (11736163_a_at) / RFU PRF1 (11729649_at) / Fold change /veh PRF1 (11729649_at) / RFU, ZNF638 /// ZNF638-IT1 / Fold change vs veh, ZNF638 /// ZNF638-IT1 / RFU, PANK3 / Fold change vs veh, PANK3 / RFU, SH3YL1 / Fold change vs veh, SH3YL1 / RFU, ZEB2 / Fold change vs veh, ZEB2 / RFU, NRIP1 / Fold change vs veh, NRIP1 / RFU, PTTG1IP / Fold change vs veh, PTTG1IP / RFU, CAPN2 / Fold change vs veh, CAPN2 / RFU, MED14 / Fold change vs veh, MED14 / RFU, SNORA58 / Fold change vs veh, SNORA58 / RFU, C1orf63 / Fold change vs veh, C1orf63 / RFU, LRRFIP1 / Fold change vs veh, LRRFIP1 / RFU, NDUFAF7 / Fold change vs veh, NDUFAF7 / RFU, SLC12A2 / Fold change vs veh, SLC12A2 / RFU, IBTK / Fold change vs veh, IBTK / RFU, ESF1 / Fold change vs veh, ESF1 / Fold change vs veh, TMEM50B / RFU, TAOK1 / Fold change vs veh, TAOK1 / RFU, ACBD3 / Fold change vs veh, ACBD3 / RFU, TMA16 / Fold change vs veh, TMA16 / RFU, RWDD3 / Fold change vs veh, RWDD3 / RFU, BCAT1 / Fold change vs veh, BCAT1 / RFU, EDEM3 / Fold change vs veh, EDEM3 / RFU, TMEM33 / Fold change vs veh, TMEM33 / RFU, WDR75 / Fold change vs veh, WDR75 / RFU, AHCTF1 / Fold change vs veh, AHCTF1 / RFU, TFRC / Fold change vs veh, TFRC / RFU, ZDHHC17 / Fold change vs veh, ZDHHC17 / RFU, NOM1 / Fold change vs veh, NOM1 / RFU, ARL8B / Fold change vs veh, ARL8B / RFU, ZBTB11 / Fold change vs veh, ZBTB11 / RFU, TAMM41 / Fold change vs veh, TAMM41 / RFU, KIAA1704 /// LOC100996395 / Fold change vs veh, KIAA1704 /// LOC100996395 / RFU, ING1 / Fold change vs veh, ING1 / RFU, TRMT61B / Fold change vs veh, TRMT61B / RFU, FUBP3 / Fold change vs veh, FUBP3 / RFU, TP53 / Fold change vs veh, TP53 / RFU, TNKS2 / Fold change vs veh, TNKS2 / RFU, ZFP14 / Fold change vs veh, ZFP14 / RFU, ACTR2 / Fold change vs veh, ACTR2 / RFU, PPP3R1 / Fold change vs veh, PPP3R1 / RFU, PIK3R1 / Fold change vs veh, PIK3R1 / RFU, HNRNPA1 / Fold change vs veh, HNRNPA1 / RFU, RNF170 / Fold change vs veh, RNF170 / RFU, ZNF28 / Fold change vs veh, ZNF28 / RFU, RNGTT / Fold change vs veh, RNGTT / RFU, OGT / Fold change vs veh, OGT / RFU, BRD1 / Fold change vs veh, BRD1 / RFU, MARS / Fold change vs veh, MARS / RFU, ZNF655 / Fold change vs veh, ZNF655 / RFU, FAHD1 / Fold change vs veh, FAHD1 / RFU, BDP1 / Fold change vs veh, BDP1 / RFU, LRRCC1 / Fold change vs veh, LRRCC1 / RFU, ARID1A / Fold change vs veh, ARID1A / RFU, ZNF146 / Fold change vs veh, ZNF146 / RFU, ZNF330 / Fold change vs veh, ZNF330 / RFU, GPN3 / Fold change vs veh, GPN3 / RFU, C9orf123 / Fold change vs veh, C9orf123 / RFU, N4BP2L2 / Fold change vs veh, N4BP2L2 / RFU, ARFIP1 / Fold change vs veh, ARFIP1 / RFU, FAM179B / Fold change vs veh, FAM179B / RFU, BCL10 / Fold change vs veh, BCL10 / RFU, UHRF1BP1L / Fold change vs veh, UHRF1BP1L / RFU, BET1 / Fold change vs veh, BET1 / RFU, CNOT2 / Fold change vs veh, CNOT2 / RFU, ZNF268 / Fold change vs veh, ZNF268 / Fold change vs veh, ZNF507 / RFU, DGCR2 / Fold change vs veh, DGCR2 / RFU, WDSUB1 / Fold change vs veh, WDSUB1 / Fold change vs veh, HSP90B1 /// MIR3652 / RFU, ADSS / Fold change vs veh, ADSS / RFU, GK / Fold change vs veh, GK / RFU, ZNF148 / Fold change vs veh, ZNF148 / RFU, TAF9 / Fold change vs veh, TAF9 / RFU, SLC1A5 / Fold change vs veh, SLC1A5 / RFU, SLMO2 / Fold change vs veh, SLMO2 / RFU, ABCC4 / Fold change vs veh, ABCC4 / RFU, LOC101060439 /// RAP1B / Fold change vs veh, LOC101060439 /// RAP1B / RFU, RFX7 / Fold change vs veh, RFX7 / RFU, GTPBP10 / Fold change vs veh, GTPBP10 / RFU, CNEP1R1 / Fold change vs veh, CNEP1R1 / RFU, BIVM-ERCC5 /// ERCC5 / Fold change vs veh, BIVM-ERCC5 /// ERCC5 / RFU, ILF3 / Fold change vs veh, ILF3 / RFU 11762660_at / Fold change /veh 11762660_at / RFU VCAN (11757783_s_at) / Fold change /veh VCAN (11757783_s_at) / RFU DDX43 (11728927_at) / Fold change /veh DDX43 (11728927_at) / RFU KRT8 (11758188_x_at) / Fold change /veh KRT8 (11758188_x_at) / RFU NKD1 (11759106_at) / Fold change /veh NKD1 (11759106_at) / RFU SRD5A1 (11742802_a_at) / Fold change /veh SRD5A1 (11742802_a_at) / RFU TPSAB1 /// TPSB2 (11721975_s_at) / Fold change /veh TPSAB1 /// TPSB2 (11721975_s_at) / RFU GSTM3 (11746129_a_at) / Fold change /veh GSTM3 (11746129_a_at) / RFU IL23R (11737362_x_at) / Fold change /veh IL23R (11737362_x_at) / RFU TMEM51 (11727254_a_at) / Fold change /veh TMEM51 (11727254_a_at) / RFU PIWIL2 (11732686_x_at) / Fold change /veh PIWIL2 (11732686_x_at) / RFU ORM1 (11744905_x_at) / Fold change /veh ORM1 (11744905_x_at) / RFU CCDC152 (11743942_at) / Fold change /veh CCDC152 (11743942_at) / RFU ECM1 (11717891_a_at) / Fold change /veh ECM1 (11717891_a_at) / RFU IL23R (11748794_a_at) / Fold change /veh IL23R (11748794_a_at) / RFU TNFAIP8L3 (11732012_x_at) / Fold change /veh TNFAIP8L3 (11732012_x_at) / RFU MBOAT4 (11741988_at) / Fold change /veh MBOAT4 (11741988_at) / RFU 11764193_at / Fold change /veh 11764193_at / RFU TMEM53 (11763286_at) / Fold change /veh TMEM53 (11763286_at) / RFU MAGEB2 (11727129_at) / Fold change /veh MAGEB2 (11727129_at) / RFU TMEM200A (11744735_a_at) / Fold change /veh TMEM200A (11744735_a_at) / RFU CCDC152 (11751479_a_at) / Fold change /veh CCDC152 (11751479_a_at) / RFU FAM211A (11726209_a_at) / Fold change /veh FAM211A (11726209_a_at) / RFU RGS16 (11746705_a_at) / Fold change /veh RGS16 (11746705_a_at) / RFU VCAN (11755009_s_at) / Fold change /veh VCAN (11755009_s_at) / RFU RHOB (11743442_s_at) / Fold change /veh RHOB (11743442_s_at) / RFU RGS16 (11720943_a_at) / Fold change /veh RGS16 (11720943_a_at) / RFU RGS16 (11720944_at) / Fold change /veh RGS16 (11720944_at) / RFU, VPS4B / Fold change vs veh, VPS4B / RFU, CREB1 / Fold change vs veh, CREB1 / RFU, DNAJC13 / Fold change vs veh, DNAJC13 / RFU, GNAQ / Fold change vs veh, GNAQ / RFU, CDK5R1 / Fold change vs veh, CDK5R1 / RFU, ZRANB3 / Fold change vs veh, ZRANB3 / RFU, CUL4A / Fold change vs veh, CUL4A / RFU, CCNY / Fold change vs veh, CCNY / RFU, UFL1 / Fold change vs veh, UFL1 / RFU, COG3 / Fold change vs veh, COG3 / RFU, DIAPH2 / Fold change vs veh, DIAPH2 / RFU, SKA2 / Fold change vs veh, SKA2 / RFU, AFF3 / Fold change vs veh, AFF3 / RFU, LMF1 / Fold change vs veh, LMF1 / RFU, IPO11 / Fold change vs veh, IPO11 / RFU, DFFB / Fold change vs veh, DFFB / RFU, FOXP1 / Fold change vs veh, FOXP1 / RFU, CARD8 / Fold change vs veh, CARD8 / RFU, STRN3 / Fold change vs veh, STRN3 / RFU, ADK / Fold change vs veh, ADK / RFU, RASSF2 / Fold change vs veh, RASSF2 / RFU, WIPF1 / Fold change vs veh, WIPF1 / RFU, LARP1B / Fold change vs veh, LARP1B / RFU, RASA1 / Fold change vs veh, RASA1 / RFU, RB1 / Fold change vs veh, RB1 / RFU, PPFIA1 / Fold change vs veh, PPFIA1 / RFU, MAT2A / Fold change vs veh, MAT2A / RFU, CCT5 / Fold change vs veh, CCT5 / RFU, WDR92 / Fold change vs veh, WDR92 / RFU, CUX1 / Fold change vs veh, CUX1 / RFU, TTC7A / Fold change vs veh, TTC7A / RFU, TMEM135 / Fold change vs veh, TMEM135 / RFU, DEPTOR / Fold change vs veh, DEPTOR / RFU, CPM / Fold change vs veh, CPM / RFU, DNAJB6 / Fold change vs veh, DNAJB6 / RFU, CACNA2D3 / Fold change vs veh, CACNA2D3 / RFU, DTX4 / Fold change vs veh, DTX4 / RFU, TFCP2 / Fold change vs veh, TFCP2 / RFU, GMCL1 /// GMCL1P1 / Fold change vs veh, GMCL1 /// GMCL1P1 / RFU, AEBP2 / Fold change vs veh, AEBP2 / RFU, SNHG1 /// SNORD22 /// SNORD25 /// SNORD26 /// SNORD27 /// SNORD28 /// SNORD29 /// SNORD31 / Fold change vs veh, SNHG1 /// SNORD22 /// SNORD25 /// SNORD26 /// SNORD27 /// SNORD28 /// SNORD29 /// SNORD31 / Fold change (Aza/veh), C12orf56 (ProbeSet 11735607_a_at) / Fold change (ACY-1035/veh), C12orf56 (ProbeSet 11735607_a_at) / Fold change (Aza/veh), FGFR1OP (ProbeSet 11751329_s_at) / Fold change (ACY-1035/veh), FGFR1OP (ProbeSet 11751329_s_at) / Fold change (Aza/veh), VPS36 (ProbeSet 11739960_a_at) / Fold change (ACY-1035/veh), VPS36 (ProbeSet 11739960_a_at) / RFU SYPL1 (11715823_x_at) / Fold change /veh SYPL1 (11715823_x_at) / RFU IGFBP7 (11715501_s_at) / Fold change /veh IGFBP7 (11715501_s_at) / RFU REEP3 (11722064_at) / Fold change /veh REEP3 (11722064_at) / RFU IGLL1 (11728026_x_at) / Fold change /veh IGLL1 (11728026_x_at): dose or concentration left out as unconfirmed", "conditions": "MV-4-11 cells, 48 hours"}
{"smiles": "Nc1ccc(-c2cccs2)cc1NC(=O)c1ccc2c(c1)cc(C1CC1)n2CCN1CCOCC1", "note": "[ACY-1035]", "values": [{"measurement": "Fold change /veh IL23R (11737362_x_at)", "result": 1.14}]}
